This experiment has as its system MC38 tumor cells. Description: Example 2: MC38 subcutaneous tumor model with amlexanox and checkpoint inhibitors, tumor volume by caliper. In kind it is in vivo, C57BL/6 mice. Particulars: for Mean tumor volume: MC38 s.c., C57BL/6, i.p.: NMDI14 5, PTC124 20, amlexanox 20 (with antibodies) or 10 (alone) mg/kg QD, antibodies 10 mg/kg BIW, 3 weeks; for Mean % Inhibition, Tumor Volume MC38: (mean(C) − mean(T))/mean(C) * 100%, negative values indicate an increase in tumor volume. As to the method:
Animals and cell cultures were maintained as described in Example 1. C57BL/6 mice were inoculated subcutaneously at the right lower flank region with MC38 tumor cells (1×10^6) in 0.1 mL of PBS for tumor development. The treatments were started when the mean tumor size reaches approximately 50 mm^3. The date of tumor cell inoculation was denoted as day 0. All the compounds were administered i.p.
After tumor cell inoculation, the animals were checked daily for morbidity and mortality as well as any effects of tumor growth and treatments on normal behavior such as mobility, visual estimation of food and water consumption, body weight gain/loss, eye/hair matting and any other abnormal effect. Tumor volumes were measured twice weekly at least in two dimensions using a caliper, and the volume expressed in mm3 using the formula: V=0.5 a×b2 where a and b are the long and short diameters of the tumor, respectively. Mean tumor volume for each treatment group over the course of the study is shown in Table 9, and the percent inhibition of tumor volume is shown in Table 10.

Here are results for one compound from patent US11654135B2, “Methods for treating colon cancer with compositions comprising amlexanox and immune checkpoint inhibitors” (MOONSHOT PHARMA LLC, priority 2017, dated 2023).

Compound `CC(C)c1ccc2oc3nc(N)c(C(=O)O)cc3c(=O)c2c1` [amlexanox, 2-amino-7-isopropyl-5-oxo-5H-chromeno[2,3-b]pyridine-3-carboxylic acid] gave a Mean tumor volume (Day 7) of 17.22 mm3; a Mean tumor volume (Day 11) of 145.47 mm3; a Mean tumor volume (Day 14) of 286.64 mm3; a Mean tumor volume (Day 18) of 982.03 mm3; a Mean tumor volume (Day 21) of 1830.00 mm3; a Mean tumor volume (Day 25) of 2816.94 mm3. Besides, the Mean tumor volume (Day 26 (so in the source)) is recorded as 3301.20 mm3. Moreover, the “Mean % Inhibition, Tumor Volume MC38” value (Study day 7 (Mar. 17, 2017)) is −45.19%; the “Mean % Inhibition, Tumor Volume MC38” value (Study day 11 (Mar. 21, 2017)) is −29.51%; the “Mean % Inhibition, Tumor Volume MC38” value (Study day 14 (Mar. 24, 2017)) is −39.15%; the “Mean % Inhibition, Tumor Volume MC38” value (Study day 18 (Mar. 28, 2017)) was −44.97%; the “Mean % Inhibition, Tumor Volume MC38” value (Study day 21 (Mar. 31, 2017)) is −63.00%; the “Mean % Inhibition, Tumor Volume MC38” value (Study day 25 (Apr. 4, 2017)) is recorded as −42.11%. Besides, for the setting “Study day 28 (Apr. 7, 2017)”, the “Mean % Inhibition, Tumor Volume MC38” value is −104.74%.
